# In the supplement of paper PMC10307832:
# What was measured:
# Assay in all cases: relative viability (nuclei count vs DMSO), 5 days (fraction); higher = more cells survive
# [1] = compound: CCCS(=O)(=O)Nc1ccc(F)c(C(=O)c2c[nH]c3ncc(-c4ccc(Cl)cc4)cc23)c1F [Vemurafenib] + C[C@@H](Oc1cc(-c2cnn(C3CCNCC3)c2)cnc1N)c1c(Cl)ccc(F)c1Cl [Crizotinib] (partner 1 µM)
# Method in brief: (§1)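 Lung cancer cell lines, seeded in 1536-well plates, were treated the following day by pin tool with a single drug or with five library-drug doses (not always all listed) in √10 steps on top of a fixed anchor-drug dose. Cells were fixed and nuclei stained in one step after 5 days, and nuclei were counted. Relative viability is the nuclei count for treated wells divided by that for vehicle wells, reported as medians of duplicate plates.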
# [2] = compound: Cc1nc(NC(=O)N2CCC[C@H]2C(N)=O)sc1-c1ccnc(C(C)(C)C(F)(F)F)c1 [Alpelisib] + Cc1nc(Nc2ncc(C(=O)Nc3c(C)cccc3Cl)s2)cc(N2CCN(CCO)CC2)n1 [Dasatinib] (partner 0.075 µM)
# Method in brief: as §1
# [3] = compound: Cc1nc(NC(=O)N2CCC[C@H]2C(N)=O)sc1-c1ccnc(C(C)(C)C(F)(F)F)c1 [Alpelisib] + CCNC(=O)c1noc(-c2cc(C(C)C)c(O)cc2O)c1-c1ccc(CN2CCOCC2)cc1 [Luminespib] (partner 0.01 µM)
# Method in brief: as §1
# [4] = compound: Cc1nc(NC(=O)N2CCC[C@H]2C(N)=O)sc1-c1ccnc(C(C)(C)C(F)(F)F)c1 [Alpelisib] + Nc1ncn([C@H]2C[C@H](O)[C@@H](CO)O2)c(=O)n1 [Decitabine] (partner 2 µM)
# Method in brief: as §1
cell line,measurement,setting,value
UMC-11,relative viability,[1]; first compound 0.03162 µM,0.638
same,relative viability,[1]; first compound 0.1 µM,0.616
same,relative viability,[1]; first compound 0.3162 µM,0.629
same,relative viability,[1]; first compound 1 µM,0.633
same,relative viability,[2]; first compound 0.04 µM,0.426
same,relative viability,[2]; first compound 0.1265 µM,0.501
same,relative viability,[2]; first compound 0.4 µM,0.537
same,relative viability,[2]; first compound 1.265 µM,0.455
same,relative viability,[2]; first compound 4 µM,0.473
same,relative viability,[3]; first compound 0.04 µM,1.04
same,relative viability,[3]; first compound 0.1265 µM,1.05
same,relative viability,[3]; first compound 0.4 µM,1.06
same,relative viability,[3]; first compound 1.265 µM,0.766
same,relative viability,[3]; first compound 4 µM,0.729
same,relative viability,[4]; first compound 0.04 µM,0.513
same,relative viability,[4]; first compound 0.1265 µM,0.636
same,relative viability,[4]; first compound 0.4 µM,0.693
same,relative viability,[4]; first compound 1.265 µM,0.535
same,relative viability,[4]; first compound 4 µM,0.745
